Reference: PMC6348381, “Discovery of an MLLT1/3 YEATS Domain Chemical Probe” (Angewandte Chemie (International Ed. in English), 2018)

What was measured:
BRD3(1) = biological target: T1, BRD3(1) (Homo sapiens, UniProt Q15059); test: Thermal shift assay, BRD3(1); assay type: binding
T1 construct: BRD3(1); purchased in-house (SGC bromodomain thermal shift / AlphaScreen panel)
Experimental: (§1) II.VII Thermal Shift Assay[6]
(§2) Thermal melting experiments were carried out using an Mx3005p Real Time PCR machine (Stratagene). Proteins were buffered in 10 mM HEPES pH 7.5, 500 mM NaCl and assayed in a 96-well plate at a final concentration of 2 μM in 20 μL volume. Compounds were added at a final concentration of 50 μM. SYPRO Orange (Molecular Probes) was added as a fluorescence probe at a dilution of 1:1000. Excitation and emission filters for the SYPRO-Orange dye were set to 465 nm and 590 nm, respectively. The temperature was raised with a step of 3 °C per minute from 25 °C to 96 °C and fluorescence readings were taken at each interval. The unfolding curves were fitted using the Boltzmann equation to determine the middle point of the transition.

EP300 = biological target: T2, EP300 (Homo sapiens, UniProt Q09472); test: Thermal shift assay, EP300; assay type: binding
T2 construct: purchased in-house (SGC bromodomain thermal shift / AlphaScreen panel)
Experimental: as §1, §2

TIF1a = biological target: T3, TIF1a (Homo sapiens, UniProt O15164); test: Thermal shift assay, TIF1a; assay type: binding
T3 construct: Bromosporine with recombinant human bromodomain proteins; made in house
T3 sequence (O15164 899-1004 limits assumed): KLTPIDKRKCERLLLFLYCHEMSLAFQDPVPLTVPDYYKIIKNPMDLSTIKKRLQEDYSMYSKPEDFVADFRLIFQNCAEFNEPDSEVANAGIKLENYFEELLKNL
Experimental: as §1, §2

WDR9(2) = biological target: T4, WDR9(2) (Homo sapiens, UniProt Q9NSI6); test: Thermal shift assay, WDR9(2); assay type: binding
T4 construct: Bromosporine with recombinant human bromodomain proteins; made in house
Experimental: as §1, §2

YEATS4 = biological target: T5, YEATS4 (Homo sapiens, UniProt O95619); test: AlphaScreen selectivity screen, YEATS4; assay type: binding
T5 construct: made in house; host or cells: E. coli Rosetta
Excerpt: (§3) IC50 (µM) IC50 (µM) IC50 (µM) IC50 (µM) (µM) (µM) (µM)
(§4) Supplementary Table 1. […]

BRD4(1) = BRD4(1) (Homo sapiens, UniProt O60885); test: AlphaScreen selectivity screen, BRD4 (1); assay type: binding
Excerpt: as §3, §4

TAF1 = TAF1 (Homo sapiens, UniProt P21675); test: AlphaScreen selectivity screen, TAF1; assay type: binding
[1] = biological target: T6, endogenous MLLT1 in HEK293 cells (Homo sapiens, UniProt Q03111); test: Cellular thermal shift assay (CETSA), HEK293 cells; assay type: cell-based; settings: Western blot
T6 construct: endogenous in cells; host or cells: HEK293
Experimental: Supplementary Table 2. Thermal stabilisation of compound 1, 92 and Bromosporine with recombinant human bromodomain proteins. *50 µM compound concentration. †10 µM compound […]
II.VIII Cellular Thermal Shift Assay[6]
HEK293 and MV4;11 cells were cultured at 37 °C in a humidified 5% CO2 atmosphere in DMEM Medium containing 10% FBS, respectively. Cells were grown until approximately […]
DMSO final concentrati on) for 30 minutes. Cells were then collected, washed with PBS, transferred in PCR tubes, and pelleted by centrifugation (300 g, 3 min, RT.) The PBS was removed, and the cell pellets heated at the indicated temperature for 3 minutes in a PCR machine (UNO96 , VMR) and then placed on ice. Lysis buffer (50 mM Tris pH 7.5, 0.8% v/v NP-40, 5% v/v glycerol, 1.5 mM MgCl2, 100 mM NaCl, 25 mM NaF, 1mM Na3VO4, 1mM PMSF, 1mM DTT, 10 μg/mL TLCK, 1 μg/mL Leupeptin, 1 μg/mL Aprotinin, 1 μg/mL soy bean trypsin, ≥250 units/ mL Benzonase) was added and the cells lysed by 3 freeze -thaw cycles in liquid nitrogen. Aggregated proteins were removed by centrifugation (17000 g, 20 min, 4 °C) and the protein concentration of the retained soluble fraction determined. 4× sample loading buffer (Bio-Rad) containing 20% v/v DTT was added and samples were heated for 6 min at 90 °C prior to separation by SDS -PAGE. […]

MLLT1 YD = biological target: T7, MLLT1 YD (Homo sapiens, UniProt Q03111); test: Isothermal titration calorimetry (ITC), MLLT1 YD; assay type: binding
T7 construct: made in house; host or cells: E. coli Rosetta
T7 sequence (Q03111 1-138 limits assumed): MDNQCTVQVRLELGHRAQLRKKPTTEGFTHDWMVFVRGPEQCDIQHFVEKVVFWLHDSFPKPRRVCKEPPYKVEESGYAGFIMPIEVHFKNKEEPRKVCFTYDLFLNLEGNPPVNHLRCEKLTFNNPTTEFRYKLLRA
Experimental: Experiments were carried out on a Nano -ITC Standard Volume Instrument (TA Instruments).
All experiments were carried out at 25 °C in 20 mM HEPES pH 7.5, 150 mM NaCl, 0.5 mM TCEP and 5% glycerol. Protein soluti ons were buffer exchanged by gel filtration. The titrations were conducted using an initial injection of 2 μL followed by 32 injections of 8 μL.
Background dilution heat was subtracted from each experiment. Thermodynamic parameters
changes in free energy, enthalpy and entropy respectively. Independent single site binding models were employed in data analysis.

T2 sequence (Q09472 whole entry): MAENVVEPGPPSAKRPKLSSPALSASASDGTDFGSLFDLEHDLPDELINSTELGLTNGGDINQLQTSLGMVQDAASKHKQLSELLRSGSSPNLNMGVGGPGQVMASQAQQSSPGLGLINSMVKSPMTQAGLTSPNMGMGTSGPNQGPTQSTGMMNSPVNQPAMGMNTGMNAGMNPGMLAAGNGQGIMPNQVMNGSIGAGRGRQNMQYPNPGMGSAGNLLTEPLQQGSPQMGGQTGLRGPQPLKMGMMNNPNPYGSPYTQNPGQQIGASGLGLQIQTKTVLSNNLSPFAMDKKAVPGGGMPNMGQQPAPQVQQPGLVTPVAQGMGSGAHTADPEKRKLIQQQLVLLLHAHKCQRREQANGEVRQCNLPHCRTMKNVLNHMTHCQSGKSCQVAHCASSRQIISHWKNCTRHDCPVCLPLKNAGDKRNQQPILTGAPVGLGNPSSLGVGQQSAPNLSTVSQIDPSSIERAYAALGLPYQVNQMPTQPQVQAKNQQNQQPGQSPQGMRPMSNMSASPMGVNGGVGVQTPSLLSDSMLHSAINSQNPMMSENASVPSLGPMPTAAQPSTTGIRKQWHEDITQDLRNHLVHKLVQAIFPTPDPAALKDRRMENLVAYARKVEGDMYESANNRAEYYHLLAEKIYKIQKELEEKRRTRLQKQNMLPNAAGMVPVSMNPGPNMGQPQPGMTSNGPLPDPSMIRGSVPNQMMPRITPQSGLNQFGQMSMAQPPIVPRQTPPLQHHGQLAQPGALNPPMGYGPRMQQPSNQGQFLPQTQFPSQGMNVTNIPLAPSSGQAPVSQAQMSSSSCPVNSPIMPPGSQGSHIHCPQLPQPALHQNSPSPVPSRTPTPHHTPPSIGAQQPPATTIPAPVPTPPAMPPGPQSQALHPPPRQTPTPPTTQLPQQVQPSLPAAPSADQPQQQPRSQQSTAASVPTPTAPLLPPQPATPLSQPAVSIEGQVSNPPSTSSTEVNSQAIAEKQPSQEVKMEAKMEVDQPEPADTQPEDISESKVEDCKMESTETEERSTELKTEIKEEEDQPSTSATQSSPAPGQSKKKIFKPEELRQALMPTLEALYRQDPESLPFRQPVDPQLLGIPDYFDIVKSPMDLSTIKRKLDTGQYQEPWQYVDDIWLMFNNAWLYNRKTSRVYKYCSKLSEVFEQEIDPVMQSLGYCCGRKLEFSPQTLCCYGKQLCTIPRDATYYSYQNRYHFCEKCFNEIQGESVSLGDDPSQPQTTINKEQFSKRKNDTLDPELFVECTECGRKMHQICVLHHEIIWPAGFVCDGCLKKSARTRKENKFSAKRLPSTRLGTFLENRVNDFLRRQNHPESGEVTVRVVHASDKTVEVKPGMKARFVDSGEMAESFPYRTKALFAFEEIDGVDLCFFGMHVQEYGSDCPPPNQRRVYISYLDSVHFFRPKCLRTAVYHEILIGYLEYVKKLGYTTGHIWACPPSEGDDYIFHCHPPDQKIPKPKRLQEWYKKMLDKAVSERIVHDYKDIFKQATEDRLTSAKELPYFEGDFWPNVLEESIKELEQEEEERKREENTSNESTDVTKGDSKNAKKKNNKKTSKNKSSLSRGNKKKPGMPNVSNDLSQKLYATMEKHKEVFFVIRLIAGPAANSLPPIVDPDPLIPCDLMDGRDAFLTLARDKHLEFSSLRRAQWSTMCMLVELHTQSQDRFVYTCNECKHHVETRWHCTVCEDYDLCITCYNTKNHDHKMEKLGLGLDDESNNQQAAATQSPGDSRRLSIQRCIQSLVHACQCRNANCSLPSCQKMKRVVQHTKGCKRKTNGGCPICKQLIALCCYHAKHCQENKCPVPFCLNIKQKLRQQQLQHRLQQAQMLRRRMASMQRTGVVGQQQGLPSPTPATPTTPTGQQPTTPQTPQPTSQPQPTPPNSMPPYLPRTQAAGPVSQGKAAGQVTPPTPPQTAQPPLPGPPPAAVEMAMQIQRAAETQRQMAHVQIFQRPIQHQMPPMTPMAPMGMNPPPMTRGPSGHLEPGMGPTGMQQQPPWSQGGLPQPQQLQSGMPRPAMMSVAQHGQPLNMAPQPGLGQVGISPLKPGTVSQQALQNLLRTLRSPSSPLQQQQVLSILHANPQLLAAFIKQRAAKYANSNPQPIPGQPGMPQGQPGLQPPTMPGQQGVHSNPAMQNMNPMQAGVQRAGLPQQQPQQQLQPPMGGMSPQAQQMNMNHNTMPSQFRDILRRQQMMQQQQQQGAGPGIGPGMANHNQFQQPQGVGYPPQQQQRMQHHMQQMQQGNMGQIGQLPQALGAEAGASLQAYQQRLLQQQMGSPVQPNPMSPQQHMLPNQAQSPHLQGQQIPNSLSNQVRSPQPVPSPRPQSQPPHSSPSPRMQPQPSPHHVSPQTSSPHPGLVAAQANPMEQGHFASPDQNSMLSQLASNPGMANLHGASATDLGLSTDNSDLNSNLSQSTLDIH
T4 sequence (Q9NSI6 1313-1418 limits assumed): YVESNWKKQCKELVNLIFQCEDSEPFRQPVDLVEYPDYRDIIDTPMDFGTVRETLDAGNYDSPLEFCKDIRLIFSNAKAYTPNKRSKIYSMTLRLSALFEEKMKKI
T1 sequence (Q15059 24-144 limits assumed): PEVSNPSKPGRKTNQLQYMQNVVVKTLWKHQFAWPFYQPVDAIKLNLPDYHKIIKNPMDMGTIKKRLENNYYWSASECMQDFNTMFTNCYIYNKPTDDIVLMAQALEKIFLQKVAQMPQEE
TAF1, sequence (P21675 1522-1656): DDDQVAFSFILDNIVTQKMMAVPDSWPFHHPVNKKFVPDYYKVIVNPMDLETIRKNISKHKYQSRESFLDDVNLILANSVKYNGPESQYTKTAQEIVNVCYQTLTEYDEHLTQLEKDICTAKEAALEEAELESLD
T6 sequence (Q03111 whole entry): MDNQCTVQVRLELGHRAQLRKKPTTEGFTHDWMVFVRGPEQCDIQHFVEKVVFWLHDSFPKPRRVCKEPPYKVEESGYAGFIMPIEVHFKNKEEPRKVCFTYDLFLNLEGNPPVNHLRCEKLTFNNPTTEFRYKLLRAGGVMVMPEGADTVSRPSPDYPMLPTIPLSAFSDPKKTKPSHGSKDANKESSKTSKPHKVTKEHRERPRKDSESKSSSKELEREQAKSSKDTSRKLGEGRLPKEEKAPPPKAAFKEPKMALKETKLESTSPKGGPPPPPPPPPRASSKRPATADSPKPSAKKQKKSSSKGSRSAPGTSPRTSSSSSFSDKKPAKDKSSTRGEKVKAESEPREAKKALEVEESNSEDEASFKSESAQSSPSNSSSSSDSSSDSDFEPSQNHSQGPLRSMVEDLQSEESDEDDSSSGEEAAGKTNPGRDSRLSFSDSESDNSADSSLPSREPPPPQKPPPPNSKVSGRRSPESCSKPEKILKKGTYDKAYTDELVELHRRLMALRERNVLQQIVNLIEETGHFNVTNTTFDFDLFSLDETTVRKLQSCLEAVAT
T5 sequence (O95619 15-158 limits assumed): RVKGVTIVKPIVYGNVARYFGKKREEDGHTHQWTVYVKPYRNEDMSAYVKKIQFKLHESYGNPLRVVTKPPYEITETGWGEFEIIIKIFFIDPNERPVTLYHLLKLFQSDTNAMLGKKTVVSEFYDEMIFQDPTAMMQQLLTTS

## CCOC(=O)Nc1cc(-c2ccc(C)c(NS(C)(=O)=O)c2)nn2c(C)nnc12 [Bromosporine, reference compound]
BRD3(1); 10 µM compound concentration
  Thermal stabilisation, BRD3(1): 5.275
EP300; 10 µM compound concentration
  Thermal stabilisation, EP300: 3.66
TIF1a; 10 µM compound concentration
  Thermal stabilisation, TIF1a: 0.16
WDR9(2); 10 µM compound concentration
  Thermal stabilisation, WDR9(2): -1.225

## C[C@H]1CCCN1Cc1nc2cc(NC(=O)c3ccc4c(cnn4C)c3)ccc2[nH]1 [Compound 92]
YEATS4
  IC50: > 10 µM
BRD4(1); 10 μM using AS
  inhibition of BRD4 (I): no inhibition
BRD4(1); AlphaScreen selectivity screen
  IC50: > 10 µM
TAF1; 10 μM using AS
  inhibition of TAF1: no inhibition
TAF1; AlphaScreen selectivity screen
  IC50: > 10 µM
[1]
  heat shock stabilisation of endogenous MLLT1 (CETSA): stabilisation
BRD3(1); 50 μM compound
  Thermal stabilisation, BRD3(1): -0.42
EP300; 50 μM compound
  Thermal stabilisation, EP300: 0.145
TIF1a; 50 μM compound
  Thermal stabilisation, TIF1a: -1.04
WDR9(2); 50 μM compound
  Thermal stabilisation, WDR9(2): -0.775

## COC(=O)c1ccc(C(=O)Nc2ccc3[nH]c(CN4CCCCC4)nc3c2)cc1 [Compound 1]
MLLT1 YD
  Kd: 1 µM
BRD3(1); 50 μM compound
  Thermal stabilisation, BRD3(1): 1.82
EP300; 50 μM compound
  Thermal stabilisation, EP300: 0.285
TIF1a; 50 μM compound
  Thermal stabilisation, TIF1a: -1.13
WDR9(2); 50 μM compound
  Thermal stabilisation, WDR9(2): -0.18
